From patent US9302999B2, “Substituted triazoles as herbicides” (E. I. DU PONT DE NEMOURS AND COMPANY, priority 2012, dated 2016)

How the values were obtained:
Assay type in all cases: in vivo
[1] = tested on: cocklebur (common cocklebur, Xanthium strumarium); test: Test C pre-/postemergence: cocklebur
Procedure, shortened: (§1)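 Visual injury scored 0–100 (100 = complete control) against untreated controls after 13–15 greenhouse days. Surfactant-containing solvent formulations applied either to soil after sowing (loam/sand) or over 1- to 4-leaf plants, 2–18 cm tall.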

[2] = tested on: goosegrass (Eleusine indica); test: Test C pre-/postemergence: goosegrass
Procedure, shortened: as §1

[3] = tested on: nightshade (eastern black nightshade, Solanum ptycanthum); test: Test C pre-/postemergence: nightshade; conditions: Preemergence
Procedure, shortened: as §1

[4] = tested on: Russian thistle (Salsola kali); test: Test C pre-/postemergence: Russian thistle; conditions: Preemergence
From the text: Seeds of plant species selected from blackgrass (Alopecurus myosuroides), bromegrass, downy (downy bromegrass, Bromus tectorum), foxtail, green (green foxtail, Setaria viridis), ryegrass, Italian (Italian ryegrass, Lolium multiflorum), winter wheat (Triticum aestivum), wild oat (Avena fatua), galium (catchweed bedstraw, Galium aparine), bermudagrass (Cynodon dactylon), surinam grass (Brachiaria decumbens), cocklebur (common cocklebur, Xanthium strumarium), corn (Zea mays), large crabgrass (Digitaria sanguinalis), woolly cupgrass (Eriochloa villosa), foxtail, giant (giant foxtail, Setaria faberii), goosegrass (Eleusine indica), johnsongrass (Sorghum halepense), kochia (Kochia scoparia), lambsquarters (Chenopodium album), morningglory (Ipomoea coccinea), nightshade (eastern black nightshade, Solanum ptycanthum), nutsedge, yellow (yellow nutsedge, Cyperus esculentus), pigweed (Amaranthus retroflexus), ragweed (common ragweed, Ambrosia elation), soybean (Glycine max), common (oilseed) sunflower (Helianthus annuus), Russian thistle (Salsola kali) and velvetleaf (Abutilon theophrasti) were planted into a blend of loam soil and sand and treated preemergence with test chemicals formulated in a non-phytotoxic solvent mixture which included a surfactant.
At the same time, plants selected from these crop and weed species and also barley (winter barley, Hordeum vulgare), canarygrass (Phalaris minor), chickweed (common chickweed, Stellaria media) windgrass (Apera spica-venti) and deadnettle (henbit deadnettle, Lamium amplexicaule) were planted in pots containing Redi-Earth® planting medium (Scotts Company, 14111 Scottslawn Road, Marysville, Ohio 43041) comprising spaghnum peat moss, vermiculite, wetting agent and starter nutrients and treated with postemergence applications of test chemicals formulated in the same manner. Plants ranged in height from 2 to 18 cm (1- to 4-leaf stage) for postemergence treatments.
Treated plants and controls were maintained in a greenhouse for 13 to 15 days, after which time all species were compared to controls and visually evaluated. Plant response ratings, summarized in Table C, are based on a scale of 0 to 100 where 0 is no effect and 100 is complete control. A dash (-) response means no test result.

[5] = tested on: canarygrass (Phalaris minor); test: Test C postemergence: canarygrass
Procedure, shortened: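 Plants at the 1- to 4-leaf stage (2 to 18 cm tall), grown in pots of peat moss/vermiculite planting medium, received postemergence applications of the formulated test chemicals. After 13 to 15 days in a greenhouse, injury was scored visually versus controls from 0 (no effect) to 100 (complete control).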

[6] = tested on: sedge, umbrella (small-flower umbrella sedge, Cyperus difformis); test: Test C flooded paddy test: sedge, umbrella; conditions: Cyperus difformis, scale 0 to 100 (0 no effect, 100 complete control), read-out: Plant response rating, Sedge, Umbrella
Procedure, shortened: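 Rating: visual, 0–100 (100 = complete control), versus untreated controls after 13 to 15 greenhouse days. Treatment went into paddy water held at 3 cm over the soil, on plants grown to two leaves.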

[7] = tested on: chamomile (scentless chamomile, Matricaria inodora); test: Test D pre-/postemergence: chamomile; conditions: Postemergence; for Plant response rating, Chamomile: scale 0 to 100
Procedure, shortened: (§2)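 Scores run from 0 (no effect) to 100 (complete control), assigned by visual comparison with controls after 14 to 21 days in a controlled environment. Both preemergence application to silt loam and postemergence application to 1- to 4-leaf plants were tested.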

[8] = tested on: mustard, wild (wild mustard, Sinapis arvensis); test: Test D pre-/postemergence: mustard, wild; conditions: Postemergence; for Plant response rating, Mustard, Wild: scale 0 to 100
Procedure, shortened: as §2

[9] = tested on: wheat, winter (winter wheat, Triticum aestivum); test: Test D pre-/postemergence: wheat, winter; conditions: Postemergence; for Plant response rating, Wheat, Winter: scale 0 to 100
Procedure, shortened: as §2

[10] = Postemergence, 31 g ai/ha, scale 0 to 100 (0 no effect, 100 complete control)
[11] = Postemergence, 62 g ai/ha, scale 0 to 100 (0 no effect, 100 complete control)
[12] = Postemergence, 125 g ai/ha, scale 0 to 100, 0 no effect, 100 complete control
[13] = Postemergence, 250 g ai/ha, scale 0 to 100
[14] = Preemergence, 31 g ai/ha, scale of 0 to 100, 0 is no effect, 100 is complete control
[15] = Preemergence, 125 g ai/ha, scale 0 to 100, 0 no effect, 100 complete control
[16] = Preemergence, 250 g ai/ha, scale 0 to 100, 0 no effect, 100 complete control
[17] = Preemergence, 62 g ai/ha, scale of 0 to 100, 0 is no effect, 100 is complete control
[18] = 31 g ai/ha, scale of 0 to 100, 0 is no effect, 100 is complete control
[19] = 62 g ai/ha, scale of 0 to 100, 0 is no effect, 100 is complete control
[20] = 125 g ai/ha, scale 0 to 100, 0 no effect, 100 complete control
[21] = 250 g ai/ha, scale 0 to 100, 0 no effect, 100 complete control
[22] = 31 g ai/ha, scale 0 to 100 (0 no effect, 100 complete control)
[23] = 62 g ai/ha, scale 0 to 100 (0 no effect, 100 complete control)

Cc1nn(-c2ccc(C(F)(F)F)cc2)nc1Cc1ccnc(C(F)(F)F)c1 [Compound 47, 4-[[5-methyl-2-[4-(trifluoromethyl)phenyl]-2H-1,2,3-triazol-4-yl]methyl]-2-(trifluoromethyl)pyridine]
Plant response rating, Cocklebur [1, 10]: 10
Plant response rating, Cocklebur [1, 11]: 65
Plant response rating, Cocklebur [1, 12]: 70
Plant response rating, Cocklebur [1, 13]: 70
Plant response rating, Cocklebur [1, 14]: 0
Plant response rating, Cocklebur ([1]; Preemergence, 62 g ai/ha, scale 0 to 100, 0 no effect, 100 complete control): 0
Plant response rating, Cocklebur [1, 15]: 0
Plant response rating, Cocklebur [1, 16]: 5
Plant response rating, Goosegrass [2, 10]: 5
Plant response rating, Goosegrass [2, 11]: 35
Plant response rating, Goosegrass [2, 12]: 70
Plant response rating, Goosegrass [2, 13]: 75
Plant response rating, Goosegrass [2, 14]: 98
Plant response rating, Goosegrass [2, 17]: 100
Plant response rating, Goosegrass [2, 15]: 100
Plant response rating, Goosegrass [2, 16]: 100
Plant response rating, Nightshade [3, 18]: 45
Plant response rating, Nightshade [3, 19]: 98
Plant response rating, Nightshade [3, 20]: 98
Plant response rating, Nightshade [3, 21]: 98
Plant response rating, Russian Thistle [4, 18]: 85
Plant response rating, Russian Thistle [4, 19]: 100
Plant response rating, Russian Thistle [4, 20]: 100
Plant response rating, Russian Thistle [4, 21]: 100
Plant response rating, Canarygrass [5, 22]: 60
Plant response rating, Canarygrass [5, 23]: 75
Plant response rating, Canarygrass [5, 20]: 85
Plant response rating, Canarygrass ([5]; 250 g ai/ha, scale 0 to 100): 90
pest or weed control at 62 g/ha ([6]; Flood (flooded paddy test), 62 g ai/ha, visual rating after 13 to 15 days): 85%
pest or weed control at 125 g/ha ([6]; Flood (flooded paddy test), 125 g ai/ha, visual rating after 13 to 15 days): 90%
pest or weed control at 250 g/ha ([6]; Flood (flooded paddy test), 250 g ai/ha, visual rating after 13 to 15 days): 90%
pest or weed control at 31 g/ha ([6]; Flood, 31 g ai/ha): 75%

Fc1ccc(-n2nc(Cc3ccnc(C(F)(F)F)c3)c(OCC(F)(F)F)n2)cc1 [Compound 142]
Plant response rating, Cocklebur [1, 11]: 30
Plant response rating, Cocklebur [1, 12]: 40
Plant response rating, Cocklebur [1, 13]: 50
Plant response rating, Cocklebur [1, 14]: 0
Plant response rating, Cocklebur [1, 17]: 10
Plant response rating, Cocklebur [1, 15]: 10
Plant response rating, Goosegrass [2, 10]: 35
Plant response rating, Goosegrass [2, 11]: 35
Plant response rating, Goosegrass [2, 12]: 70
Plant response rating, Goosegrass [2, 13]: 90
Plant response rating, Goosegrass [2, 14]: 100
Plant response rating, Goosegrass [2, 17]: 100
Plant response rating, Goosegrass [2, 15]: 100
Plant response rating, Goosegrass [2, 16]: 100
Plant response rating, Nightshade [3, 18]: 95
Plant response rating, Nightshade [3, 19]: 95
Plant response rating, Nightshade [3, 20]: 98
Plant response rating, Nightshade [3, 21]: 98
Plant response rating, Russian Thistle [4, 19]: 80
Plant response rating, Russian Thistle [4, 20]: 90
Plant response rating, Russian Thistle [4, 21]: 90
Plant response rating, Canarygrass [5, 22]: 45
Plant response rating, Canarygrass [5, 23]: 80
Plant response rating, Canarygrass [5, 20]: 85
Plant response rating, Canarygrass ([5]; 250 g ai/ha, scale 0 to 100): 100

Cc1nn(-c2ccc(F)c(F)c2)nc1Oc1ccnc(C(F)(F)F)c1 [Compound 145]
Plant response rating, Cocklebur [1, 10]: 10
Plant response rating, Cocklebur [1, 11]: 15
Plant response rating, Cocklebur [1, 12]: 65
Plant response rating, Cocklebur [1, 13]: 65
Plant response rating, Cocklebur [1, 14]: 0
Plant response rating, Cocklebur [1, 17]: 0
Plant response rating, Cocklebur [1, 15]: 10
Plant response rating, Goosegrass [2, 10]: 25
Plant response rating, Goosegrass [2, 11]: 35
Plant response rating, Goosegrass [2, 12]: 70
Plant response rating, Goosegrass [2, 13]: 80
Plant response rating, Goosegrass [2, 14]: 98
Plant response rating, Goosegrass [2, 17]: 100
Plant response rating, Goosegrass [2, 15]: 100
Plant response rating, Goosegrass [2, 16]: 100
Plant response rating, Nightshade [3, 18]: 35
Plant response rating, Nightshade [3, 19]: 80
Plant response rating, Nightshade [3, 20]: 85
Plant response rating, Nightshade [3, 21]: 90
Plant response rating, Russian Thistle [4, 18]: 0
Plant response rating, Russian Thistle [4, 20]: 90
Plant response rating, Russian Thistle [4, 21]: 95
Plant response rating, Canarygrass [5, 22]: 15
Plant response rating, Canarygrass [5, 23]: 40
Plant response rating, Canarygrass [5, 20]: 50
Plant response rating, Canarygrass ([5]; 250 g ai/ha, scale 0 to 100): 90
Plant response rating: Chamomile [7, 22]: 10
Plant response rating: Chamomile [7, 23]: 10
Plant response rating: Chamomile [7, 20]: 30
Plant response rating, Chamomile ([7]; 8 g ai/ha): 0
Plant response rating, Chamomile ([7]; 16 g ai/ha): 0
Plant response rating: Mustard, Wild [8, 22]: 75
Plant response rating: Mustard, Wild [8, 23]: 90
Plant response rating: Mustard, Wild [8, 20]: 100
Plant response rating, Mustard, Wild ([8]; 8 g ai/ha): 25
Plant response rating, Mustard, Wild ([8]; 16 g ai/ha): 70
Plant response rating: Wheat, Winter [9, 22]: 10
Plant response rating: Wheat, Winter [9, 23]: 10
Plant response rating: Wheat, Winter [9, 20]: 10
Plant response rating, Wheat, Winter ([9]; 8 g ai/ha): 5
Plant response rating, Wheat, Winter ([9]; 16 g ai/ha): 5
